Experimental data reported in article PMC6383769 (Nature, 2019).

Assays:
[1] = target: T1, human D4 (D4.4 variant) (Homo sapiens, UniProt P21917); assay: biochemical; type: binding
T1 sequence (P21917 1-419): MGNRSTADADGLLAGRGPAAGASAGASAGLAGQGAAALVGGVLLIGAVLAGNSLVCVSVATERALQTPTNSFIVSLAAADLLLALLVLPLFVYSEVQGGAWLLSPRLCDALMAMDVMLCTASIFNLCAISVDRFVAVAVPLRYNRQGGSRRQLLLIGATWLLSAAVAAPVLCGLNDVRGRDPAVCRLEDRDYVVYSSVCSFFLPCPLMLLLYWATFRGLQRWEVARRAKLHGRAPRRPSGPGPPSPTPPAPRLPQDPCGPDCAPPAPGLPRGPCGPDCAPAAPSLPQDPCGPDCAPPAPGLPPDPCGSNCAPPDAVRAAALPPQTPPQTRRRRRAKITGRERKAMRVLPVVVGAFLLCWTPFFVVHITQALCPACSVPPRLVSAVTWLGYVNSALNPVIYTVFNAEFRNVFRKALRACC

[2] = target: human D2 (D2 long receptor) (Homo sapiens, UniProt P14416); assay: biochemical; type: binding
[3] = target: human D3 (Homo sapiens, UniProt P35462); assay: D3 radioligand binding assay
[4] = target: T1, human D4 (D4.4 variant); assay: cell-based
[5] = target: T2, cloned human D4 (Homo sapiens, UniProt P21917); assay: cell-based; conditions: Tango EC50, D4 β-arrestin
T2 sequence (P21917 1-419): T1 sequence (P21917 1-419)

[6] = target: T3, human D4 (Homo sapiens, UniProt P21917); assay: Arrestin BRET; type: cell-based
T3 sequence (P21917 1-419): T1 sequence (P21917 1-419)

[7] = target: T3, human D4; assay: cell-based
[8] = test system: D4 dopamine receptor; assay: Signaling bias, G protein versus β-arrestin, versus quinpirole; type: cell-based, human

Sequence of human D2 (D2 long receptor) (P14416 whole entry): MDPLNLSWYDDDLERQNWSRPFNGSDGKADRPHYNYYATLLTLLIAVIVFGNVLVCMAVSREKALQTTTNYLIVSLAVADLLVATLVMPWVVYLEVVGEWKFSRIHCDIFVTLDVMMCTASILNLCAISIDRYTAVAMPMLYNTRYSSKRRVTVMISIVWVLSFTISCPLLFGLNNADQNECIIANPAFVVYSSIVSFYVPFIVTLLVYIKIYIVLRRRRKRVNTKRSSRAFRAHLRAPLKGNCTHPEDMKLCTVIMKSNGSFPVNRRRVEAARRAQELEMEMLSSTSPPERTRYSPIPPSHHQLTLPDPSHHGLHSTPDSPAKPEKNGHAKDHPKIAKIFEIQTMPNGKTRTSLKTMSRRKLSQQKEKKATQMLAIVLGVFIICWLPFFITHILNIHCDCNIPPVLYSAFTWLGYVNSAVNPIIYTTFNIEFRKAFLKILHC
Sequence of human D3 (P35462 whole entry): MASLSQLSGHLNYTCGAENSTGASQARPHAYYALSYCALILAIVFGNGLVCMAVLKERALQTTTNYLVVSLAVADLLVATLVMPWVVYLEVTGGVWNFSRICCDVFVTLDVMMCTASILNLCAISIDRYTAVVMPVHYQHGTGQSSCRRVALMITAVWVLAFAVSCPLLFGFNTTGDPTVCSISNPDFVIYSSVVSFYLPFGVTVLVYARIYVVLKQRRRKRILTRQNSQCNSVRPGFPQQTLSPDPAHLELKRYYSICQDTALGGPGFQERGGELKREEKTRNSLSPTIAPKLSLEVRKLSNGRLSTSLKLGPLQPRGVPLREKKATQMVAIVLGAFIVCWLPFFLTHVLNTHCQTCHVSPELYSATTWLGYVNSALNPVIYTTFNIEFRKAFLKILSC

| Compound | Ki [1] | Ki [2] | Ki [3] | EC50 [4] | EC50 [5] | EC50 [6] | EC50 [7] | β-arrestin bias [8] |
| --- | --- | --- | --- | --- | --- | --- | --- | --- |
| O=C(CN1C[C@@H](O)C[C@@H]1C1CC1)Nc1ccc(Br)cc1 [ZINC640028109] | 0.81 µM | > 10 µM | > 10 µM |  |  |  |  |  |
| C[C@H](N[C@H](CO)Cc1ccccc1)c1cc2c(s1)CCC2 [ZINC437075156] | 0.19 µM | > 10 µM | > 10 µM | 10.4 µM |  |  |  |  |
| Cc1ccc(CNCCCn2cccn2)cc1Br [ZINC127859549] | 0.26 µM | > 10 µM | 3.57 µM | 10.4 µM |  |  |  |  |
| C[C@H]1CN(C2CC2)C[C@H]1NC(=O)c1cc2cc(Br)ccc2o1 [ZINC467716766] | 0.7 µM | > 10 µM | > 10 µM | 34.8 µM |  |  |  |  |
| C[C@H]1CN(C2CC2)C[C@H]1NC(=O)c1cc2cc([N+](=O)[O-])ccc2s1 [ZINC268141382] | 0.56 µM | > 10 µM | > 10 µM | 9.9 µM |  |  |  |  |
| CCCC[C@H](CN)NC(=O)Nc1cnn(-c2ccc(C)cc2C)c1 [ZINC415558697] | 0.99 µM | 2 µM | 5.87 µM |  |  |  |  |  |
| C=Cn1cc(CNC[C@@H](CO)Cc2ccccc2Br)cn1 [ZINC278933042] | 0.27 µM | > 10 µM | > 10 µM | 0.041 µM | 22.3 µM |  |  |  |
| N#Cc1ccnc(SC[C@]2(O)CCN(Cc3ccccc3)C2)c1 [ZINC601953994] | 0.98 µM | > 10 µM | > 10 µM |  |  |  |  |  |
| C[C@H](CNC(=O)c1coc2ccc(Cl)cc12)N1CCCC1 [ZINC651262870] | 0.44 µM | > 10 µM | > 10 µM | 31 µM |  |  |  |  |
| CCC[C@H](C)[C@H](CO)NCCc1nc(-c2ccc(Cl)cc2)no1 [ZINC567992445] | 0.85 µM | > 10 µM | > 10 µM | 4.82 µM |  |  |  |  |
| O[C@]1(CNCc2cnn(-c3ccc(Br)cc3)c2)CCSC1 [ZINC176752603] | 0.3 µM | > 10 µM | > 10 µM |  |  |  |  |  |
| CCC(CC)[C@@H](O)CNCc1cnc(-c2ccccc2F)s1 [ZINC449156693] | 0.76 µM | > 10 µM | > 10 µM |  |  |  |  |  |
| C#CCOc1ccccc1CN1CC[C@@]2(C1)C(=O)Nc1ccccc12 [ZINC375299581] | 0.18 µM | > 10 µM | > 10 µM |  |  |  |  |  |
| C[C@@H]1CCCN(C(C)(C)CNc2nc(C3CC3)ns2)C1 [ZINC92642352] | 0.82 µM | > 10 µM | > 10 µM |  |  |  |  |  |
| OC[C@H](Cc1ccc(F)cc1)NCc1ccn(-c2ccccc2)n1 [ZINC358506216] | 0.25 µM | 5.88 µM | 6.54 µM |  |  |  |  |  |
| CC1(C)CCN(CC(=O)NC[C@@H]2CCC[C@H]2C2CC2)C1 [ZINC572302473] | 0.91 µM | > 10 µM | > 10 µM |  |  |  |  |  |
| CC(C)N1C[C@H](C)[C@H](NC(=O)N2Cc3ccccc3[C@@H]2C)C1 [ZINC621433143] | 0.669 µM | > 10 µM | > 10 µM | 0.35 µM | 0.898 µM | 1.25 µM | 3.15 µM | 7 |
| C=C(C)COCCNC[C@H](O)Cc1ccc(C(F)(F)F)cc1 [ZINC569686370] | 0.55 µM | > 10 µM | > 10 µM | 7.8 µM |  |  |  |  |
| Cc1cccc(CCNCc2ccn(-c3ccccc3)n2)c1 [ZINC237938360] | 0.18 µM | 5.72 µM | 1.07 µM |  |  |  |  |  |
| CC(C)N1C[C@H](C)[C@H](NC(=O)c2cccc3cc[nH]c23)C1 [ZINC247398558] | 0.21 µM | > 10 µM | > 10 µM |  |  |  |  |  |
